How the values were obtained:
H 460 = test: Anti-neoplasmic activity against xenograft in hairless mice; format: in vivo
Protocol: (§1) For this, we selected 26 bis-acridines, mainly on the basis of the cytotoxic activity. We performed 34 series of experiments evaluating the anti-neoplasmic activity on xenografts in hairless mice against eleven neoplasms of human origin from the determination of the cytotoxic activity of bis-acridines (table 4). The tumours were injected subcutaneously to hairless mice of 5-weeks, female Crl:Nu-Foxnlnu, at a rate of 5×10^6 cells per mouse. After attaining a tumour of about 100 mm^3 or 200 mm^3 in depending on the neoplasm and its take this was 8 or even 30 days, and began therapy. On the day therapy was initiated, we randomised the animals and divided them into groups. Test groups were from 6 to 8 animals, and controls had from 8 to 14 animals. Each compound was tested at three differentiated doses.
(§2) The preparations were administered intravenously (i.v.) twice weekly for 4 weeks (thrice weekly for rapidly growing neoplasms). In several series, we used intraperitoneally (i.p.) administration in the same scheme. […] The therapeutic efficacy of the tested formulations was evaluated by measuring tumour size (length and width measurements of the tumour on the basis of the calculated tumour volume). Tumours were measured twice weekly for a period of about 30 days for fast-growing neoplasms, as well as about 60 days for the slow-growing neoplasms. The tumour volume in the treated groups compared with the control group. On this basis, inhibition of tumour growth was calculated using the following formula: Tumour growth inhibition TGI [%]=100−(ΔVT/ΔVC×100) Where ΔVT—is mean the tumour volume in animals in the group treated at the given day of treatment, minus the mean tumour volume in animals at the date of commencement of therapy. ΔVC is mean tumour volume in animals in the control group on a given day of treatment minus the average tumour volume of animals on the date of commencement of therapy. The results of the tests of anti-neoplasmic activity conducted in xenografts of human-origin neoplasms in mice are shown in Table 5.
(§3) The result above was accepted only in the case that the dose administered in all animals or more than half of the animals that survived to the end of the experiment. In addition, the evaluation was the day that the administration of the preparation was already completed: for the fast-growing neoplasms (eg. HCT116) this was in the days from 15 to 26, while for slow-growing neoplasms (eg. Panc 1) on a day from 34 to 60. […] In addition, the maximum inhibition of neoplasms could be identified in the day, in which there were no factors that could change the value TGI value.
(§4) Such factors may include: a significant decrease in body weight, the appearance of observable toxaemia, excessive rate of tumour growth: tumours in excess of 2000 mm^3 and all animals alive on that day.

PANC-1 = test: Cytotoxic activity in vitro, SRB; format: cell-based, human
Protocol: (§5) Cytotoxic activity tests in-vitro. A measure of the cytotoxic activity of bis-acridines are the EC50 (concentration of studied compounds at which 50% inhibition of proliferation of tumorous is observed) of the evaluated compounds that inhibit the growth of 50% of cells in relation to a control. The cytotoxic activity of the compounds was determined using SRB, recommended by the US National Cancer Institute (USA). As the spectrum of 13 human origin neoplasms in bis-acridine screening studies, we used the following: HT 29 [CRC], HCT 116 [CRC], H 460 [lung cancer], MDA MB 231 [breast cancer], MCF-7 [breast cancer], UM UC3 [bladder cancer], PC 3 [prostate cancer], DU 145 [ prostate cancer], Panc-1 [pancreatic cancer], Mia Pa Ca 2 [pancreatic cancer], BXPC 3 [pancreatic cancer], AsPC1 [pancreatic cancer], Capan-2 [pancreatic cancer]. […] The DU-145 results were substantially a basis for selecting compounds and neoplasms for screening. The next neoplasms most sensitive to the cytotoxic activity of bis-acridines was the CRC HCT-116, as well as breast cancer MBA-MB-231. […] The cytotoxic activity of the remaining bis-acridines is significant or high (EC50 in the range from 1 to 0.04 μM). […] Panc-1, MiaPaCa-2 and Capan-2 are more sensitive, whereas for AsPC-1 and BxPC-3 this activity is at least an order of magnitude smaller.

UM-UC-3 = test: Cytotoxic activity in vitro, SRB; format: cell-based, human
Protocol: as §5

H-460 = test: Cytotoxic activity in vitro, SRB; format: cell-based, human
Protocol: as §5

HCT-116 = test: Cytotoxic activity in vitro, SRB; format: cell-based, human
Protocol: as §5

DU-145 = test: Cytotoxic activity in vitro, SRB; format: cell-based, human
Protocol: as §5

HT-29 = test: Cytotoxic activity in vitro, SRB; format: cell-based, human
Protocol: as §5

MCF-7 = test: Cytotoxic activity in vitro, SRB; format: cell-based, human
Protocol: as §5

MDA-MB-231 = test: Cytotoxic activity in vitro, SRB; format: cell-based, human
Protocol: as §5

AsPC-1 = test: Cytotoxic activity in vitro, SRB; format: cell-based, human
Protocol: as §5

MiaPaCa-2 = test: Cytotoxic activity in vitro, SRB; format: cell-based, human
Protocol: as §5

PC-3 = test: Cytotoxic activity in vitro, SRB; format: cell-based, human
Protocol: as §5

BXPC 3 = test: Anti-neoplasmic activity against xenograft in hairless mice; format: in vivo; conditions: series 25, i.v., single 20 mg/kg, total 160 mg/kg, day 29
Protocol: as §1, §2, §3, §4

PANC 1 = test: as above; format: in vivo
Protocol: as §1, §2, §3, §4

BxPC-3 = test: Cytotoxic activity in vitro, SRB; format: cell-based, human
Protocol: as §5

DU 145 = test: Anti-neoplasmic activity against xenograft in hairless mice; format: in vivo; conditions: single 8 mg/kg
Protocol: as §1, §2, §3, §4

Compound | EC50 (PANC-1) [nM] | EC50 (UM-UC-3) [nM] | EC50 (H-460) [nM] | EC50 (HCT-116) [nM] | EC50 (DU-145) [nM] | EC50 (HT-29) [nM] | EC50 (MDA-MB-231) [nM] | EC50 (AsPC-1) [nM] | EC50 (MiaPaCa-2) [nM] | also measured
Cc1ccc([N+](=O)[O-])c2c(NCCCNCCCNc3ccc(C)c4[nH]c5ccccc5c(=O)c34)c3ccccc3nc12 [C-2022, 9-{N-[(4-methyl-9(10H)-acridono-1-yl)aminopropyl]propylamino}-4′-methyl-1′-nitroacridine] | 162 | 105 | 67 | 85 | 129 | 1300 | – | – | – | TGI [%] [100 − (ΔVT/ΔVC × 100] (H 460; series 5, i.p., single 10 mg/kg, total 60 mg/kg, day 14): 25%
CN(CCCNc1c2ccccc2nc2cccc([N+](=O)[O-])c12)CCCNc1ccc([N+](=O)[O-])c2[nH]c3ccccc3c(=O)c12 [C-2026, 9-{N-[(4-nitro-9(10H)acridono-1-yl)aminopropyl]-N-methylaminopropylamino}-1′-nitroacridine] | 28 | 29 | 10 | 260 | 24 | 67 | 28 | 66 | 103 | TGI [%] [100 − (ΔVT/ΔVC × 100] (H 460; series 16, i.v., single 1 mg/kg, total 5 mg/kg, day 15): 14%; TGI [%] [100 − (ΔVT/ΔVC × 100] (H 460; series 16, i.v., single 4 mg/kg, total 16 mg/kg, day 14, *at least half of animals did not survive): 35* %; EC50 (MCF-7): 695 nM; EC50 (PC-3): 51 nM
Cc1ccc([N+](=O)[O-])c2c(NCCCN3CCN(CCCNc4ccc5ncn6c7ccccc7c(=O)c4c56)CC3)c3ccccc3nc12 [C-2050, 1-[3-(imidazo[4,5,1-de]-acridin-6-on-5-yl)aminopropyl]-4-[3′-(4′-methyl-1′-nitroacridin-1-yl)-aminopropyl]piperazine] | 65 | – | – | 45 | 62 | – | – | 240 | 58 | TGI [%] [100 − (ΔVT/ΔVC × 100] (BXPC 3): 40%; TGI [%] [100 − (ΔVT/ΔVC × 100] (PANC 1; series 24, i.v., single 20 mg/kg, total 160 mg/kg, day 50): 64%; TGI [%] [100 − (ΔVT/ΔVC × 100] (PANC 1; series 26, i.v., single 30 mg/kg, total 160 mg/kg, day 40): 64%; EC50 (BxPC-3): 351 nM
Cc1ccc([N+](=O)[O-])c2c(NCCCN3CCN(CCCNc4ccc(C)c5[nH]c6ccccc6c(=O)c45)CC3)c3ccccc3nc12 [C-2017, 1-[3-(4-methyl-9(10H)-acridono-1-yl)aminopropyl]-1-[3′-(4′-methyl-1′-nitroacridin-1-yl)-aminopropyl]piperazine] | – | – | 40 | 47 | 46 | 61 | 48 | – | 67 | TGI [%] [100 − (ΔVT/ΔVC × 100] (DU 145; series 2, i.p., total 48 mg/kg, day 35): 25%; TGI [%] [100 − (ΔVT/ΔVC × 100] (H 460; series 5, i.p., single 5 mg/kg, total 30 mg/kg, day 14): 6%; TGI [%] [100 − (ΔVT/ΔVC × 100] (PANC 1; series 31, i.v., single 15 mg/kg, total 120 mg/kg, day 51): 75%
Cc1ccc(NCCNCCNc2c3ccccc3nc3cccc([N+](=O)[O-])c23)c2c(=O)c3ccccc3[nH]c12 [C-1965, 9-{N-[(4-methyl-9(10H)-acridono-1-yl)aminoethyl]ethylamino}-1′-nitroacridine] | 212 | – | – | – | 243 | 138 | 137 | – | – | TGI [%] [100 − (ΔVT/ΔVC × 100] (DU 145; series 1, i.p., total 40 mg/kg, day 35, *at least half of animals did not survive): 61* %
Cc1ccc([N+](=O)[O-])c2c(NCCCN3CCN(CCCNc4ccc([N+](=O)[O-])c5[nH]c6ccccc6c(=O)c45)CC3)c3ccccc3nc12 [C-2030, 1-[3-(4-nitro-9(10H)-acridono-1-yl)aminopropyl]-4-[3′-(4′-methyl-1′-nitroacridin-1-yl)-aminopropyl]piperazine] | 130 | 63 | 40 | 83 | 41 | – | – | – | 108 | TGI [%] [100 − (ΔVT/ΔVC × 100] (H 460; series 6, i.v., single 10 mg/kg, total 60 mg/kg, day 17, *at least half of animals did not survive): 24* %; EC50 (PC-3): 362 nM
1-[3-(8-hydroxy-methylimidazo[4,5,1-de]-acridin-6-on-5-yl)aminopropyl]-4-[3′-(1′-nitroacridin-1-yl)-aminopropyl]piperazine [C-2051] | 39 | – | – | 27 | 24 | – | – | 151 | 18 | TGI [%] [100 − (ΔVT/ΔVC × 100] (PANC 1; series 27, i.v., single 2 mg/kg, total 16 mg/kg, day 40, *at least half of animals did not survive): 68* %; EC50 (BxPC-3): 152 nM
